Experimental findings from patent publication US9115102B2, “N-[2-hydroxycarbamoyl-2-(piperazinyl) ethyl] benzamide compounds, their preparation and their use as TACE inhibitors” (GALDERMA RESEARCH & DEVELOPMENT, priority 2009, dated 2015) are described below.

Bounds are passed on as bounds.

In one assay the target is TACE enzyme (Homo sapiens, UniProt P78536). Kind of assay: Enzymatic test of TACE inhibition (fluorescent substrate). It counts as biochemical.
Another assay addresses MMP1 (Homo sapiens (Human), UniProt P03956). Kind of assay: Selectivity test, MMP1. It counts as biochemical.
A further assay concerns the target MMP3 (Homo sapiens (Human), UniProt P08254). Kind of assay: Selectivity test, MMP3. It counts as biochemical.
In a further assay the target is ADAM10 (Homo sapiens (Human), UniProt O14672). Kind of assay: Selectivity test, ADAM10. The assay is classed as biochemical.
Chain of ADAM10 (O14672 214-748): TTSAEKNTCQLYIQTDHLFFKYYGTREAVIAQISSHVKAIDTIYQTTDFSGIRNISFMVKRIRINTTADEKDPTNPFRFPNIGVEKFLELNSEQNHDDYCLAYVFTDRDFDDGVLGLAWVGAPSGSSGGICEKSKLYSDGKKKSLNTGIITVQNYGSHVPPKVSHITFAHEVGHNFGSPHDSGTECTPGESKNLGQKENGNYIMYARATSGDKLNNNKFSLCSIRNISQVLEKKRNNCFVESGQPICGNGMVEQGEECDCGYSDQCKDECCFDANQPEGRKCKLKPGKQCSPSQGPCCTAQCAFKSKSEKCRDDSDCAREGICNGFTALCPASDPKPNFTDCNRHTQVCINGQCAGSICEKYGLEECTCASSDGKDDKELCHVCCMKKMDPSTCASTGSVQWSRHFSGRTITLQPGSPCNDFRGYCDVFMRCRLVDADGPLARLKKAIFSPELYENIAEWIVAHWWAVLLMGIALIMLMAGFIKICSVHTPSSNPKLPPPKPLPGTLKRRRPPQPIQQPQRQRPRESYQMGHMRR
The next assay deals with MMP9 (Homo sapiens (Human), UniProt P14780). Kind of assay: Selectivity test, MMP9. The assay is classed as biochemical.
Chain of MMP9 (P14780 94-707): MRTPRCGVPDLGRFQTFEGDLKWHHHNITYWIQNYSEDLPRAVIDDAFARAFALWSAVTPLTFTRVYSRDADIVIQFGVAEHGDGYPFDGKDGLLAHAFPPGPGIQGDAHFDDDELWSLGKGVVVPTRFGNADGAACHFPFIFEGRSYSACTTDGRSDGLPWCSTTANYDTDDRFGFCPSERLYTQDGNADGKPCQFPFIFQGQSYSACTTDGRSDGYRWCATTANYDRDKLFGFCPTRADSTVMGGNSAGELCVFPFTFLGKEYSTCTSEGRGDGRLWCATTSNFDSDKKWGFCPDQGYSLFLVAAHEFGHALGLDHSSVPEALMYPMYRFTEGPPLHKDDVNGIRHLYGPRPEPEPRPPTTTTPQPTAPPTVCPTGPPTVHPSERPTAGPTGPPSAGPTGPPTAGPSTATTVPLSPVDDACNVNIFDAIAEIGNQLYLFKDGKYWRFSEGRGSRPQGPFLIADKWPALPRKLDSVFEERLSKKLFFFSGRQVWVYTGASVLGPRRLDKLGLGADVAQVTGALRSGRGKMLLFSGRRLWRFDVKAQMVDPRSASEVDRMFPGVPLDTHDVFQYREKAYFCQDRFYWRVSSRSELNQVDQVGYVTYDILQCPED
The target in another assay is ADAM9 (Homo sapiens (Human), UniProt Q13443). Kind of assay: biochemical.
Chain of ADAM9 (Q13443 29-819): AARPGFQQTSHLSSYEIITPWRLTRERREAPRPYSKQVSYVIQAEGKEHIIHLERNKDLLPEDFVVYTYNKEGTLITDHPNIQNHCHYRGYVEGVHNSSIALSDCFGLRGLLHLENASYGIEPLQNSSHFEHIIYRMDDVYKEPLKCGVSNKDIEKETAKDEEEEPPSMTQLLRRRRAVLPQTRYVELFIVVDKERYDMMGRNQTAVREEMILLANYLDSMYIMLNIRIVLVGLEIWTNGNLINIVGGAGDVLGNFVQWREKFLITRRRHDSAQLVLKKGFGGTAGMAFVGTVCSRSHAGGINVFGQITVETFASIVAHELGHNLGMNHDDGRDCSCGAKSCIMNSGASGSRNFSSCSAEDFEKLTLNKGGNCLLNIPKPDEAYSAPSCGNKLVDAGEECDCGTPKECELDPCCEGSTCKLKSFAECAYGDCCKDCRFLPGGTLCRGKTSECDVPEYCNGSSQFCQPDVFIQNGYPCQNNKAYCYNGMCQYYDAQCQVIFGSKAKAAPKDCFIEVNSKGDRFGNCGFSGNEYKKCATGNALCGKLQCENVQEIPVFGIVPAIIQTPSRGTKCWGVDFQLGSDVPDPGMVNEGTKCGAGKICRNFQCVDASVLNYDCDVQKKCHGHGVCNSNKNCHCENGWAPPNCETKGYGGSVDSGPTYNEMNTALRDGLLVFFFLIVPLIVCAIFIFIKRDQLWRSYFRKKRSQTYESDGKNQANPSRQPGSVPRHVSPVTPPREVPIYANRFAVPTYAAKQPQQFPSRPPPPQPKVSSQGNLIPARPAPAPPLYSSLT
Where [1] appears, read: enzymatic test, substrate 40 μM.

Chain of TACE enzyme (P78536 215-824 limits assumed): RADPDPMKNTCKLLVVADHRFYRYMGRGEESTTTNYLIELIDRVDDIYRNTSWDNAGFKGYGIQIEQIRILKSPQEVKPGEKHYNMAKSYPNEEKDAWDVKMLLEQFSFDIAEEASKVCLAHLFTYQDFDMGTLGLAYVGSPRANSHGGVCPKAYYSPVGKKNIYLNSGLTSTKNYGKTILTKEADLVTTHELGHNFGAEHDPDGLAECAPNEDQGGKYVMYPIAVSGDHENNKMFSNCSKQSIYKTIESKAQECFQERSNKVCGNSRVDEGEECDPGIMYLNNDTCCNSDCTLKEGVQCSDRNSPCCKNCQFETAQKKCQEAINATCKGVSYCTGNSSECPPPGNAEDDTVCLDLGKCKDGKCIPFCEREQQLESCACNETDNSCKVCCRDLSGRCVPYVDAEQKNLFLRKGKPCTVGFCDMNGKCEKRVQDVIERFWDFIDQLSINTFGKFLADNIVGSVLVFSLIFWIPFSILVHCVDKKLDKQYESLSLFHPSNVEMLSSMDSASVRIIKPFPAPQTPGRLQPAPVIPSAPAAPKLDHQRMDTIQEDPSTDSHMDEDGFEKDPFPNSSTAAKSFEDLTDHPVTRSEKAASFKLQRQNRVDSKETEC
Chain of MMP3 (P08254 100-477): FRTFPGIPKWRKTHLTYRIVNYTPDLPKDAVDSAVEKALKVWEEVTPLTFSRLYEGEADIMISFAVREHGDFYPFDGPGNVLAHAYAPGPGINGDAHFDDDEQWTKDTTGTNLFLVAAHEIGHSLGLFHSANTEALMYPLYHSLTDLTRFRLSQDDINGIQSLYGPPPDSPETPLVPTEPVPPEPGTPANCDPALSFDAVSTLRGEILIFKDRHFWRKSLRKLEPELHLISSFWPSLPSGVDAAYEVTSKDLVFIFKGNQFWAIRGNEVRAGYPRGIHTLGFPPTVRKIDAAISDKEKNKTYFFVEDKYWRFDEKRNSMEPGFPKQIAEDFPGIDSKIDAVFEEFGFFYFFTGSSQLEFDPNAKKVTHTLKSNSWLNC
Chain of MMP1 (P03956 100-469): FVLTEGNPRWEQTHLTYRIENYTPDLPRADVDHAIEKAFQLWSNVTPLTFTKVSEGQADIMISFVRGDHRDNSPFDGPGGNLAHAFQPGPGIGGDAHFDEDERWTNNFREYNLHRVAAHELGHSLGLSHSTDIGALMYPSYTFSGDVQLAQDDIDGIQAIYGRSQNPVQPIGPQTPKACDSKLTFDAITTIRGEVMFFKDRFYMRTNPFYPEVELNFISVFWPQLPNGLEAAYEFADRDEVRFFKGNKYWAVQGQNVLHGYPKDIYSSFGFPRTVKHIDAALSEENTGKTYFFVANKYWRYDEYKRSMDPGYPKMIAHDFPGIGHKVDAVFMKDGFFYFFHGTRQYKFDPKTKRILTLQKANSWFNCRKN

What is called IC50 is the concentration that inhibits the measured activity by half. The low end stands for inhibition by little substance, the high end for a need for much substance. As for `Cc1cc(COc2ccc(C(=O)NC[C@@H](C(=O)NO)N3CCN(S(C)(=O)=O)CC3)cc2)c2ccccc2n1` [Example 14, N—[(S)-2-Hydroxycarbamoyl-2-(4-methane-sulphonylpiperazin-1-yl)ethyl]-4-(2-methylquinolin-4-ylmethoxy)benzamide], at TACE enzyme, the “% TACE inhibition at 10 μM” value amounted to 98%. The IC50 against MMP1 was found to be 2610 nM; on MMP3, 6830 nM; on ADAM10, 5790 nM.

Regarding `Cc1cc(COc2ccc(C(=O)NC[C@@H](C(=O)NO)N3CCN(Cc4ccccc4)CC3)cc2)c2ccccc2n1` [Example 22, N—[(S)-2-(4-Benzylpiperazin-1-yl)-2-hydroxycarbamoylethyl]-4-(2-methylquinolin-4-yl-methoxy)benzamide], at TACE enzyme, the “% TACE inhibition at 10 μM” value came to 97%. On TACE enzyme (setting [1]), this compound returned an IC50 of 79 nM.

Take `CS(=O)(=O)N1CCN([C@@H](CNC(=O)c2ccc(OCc3ccc(C(F)(F)F)cc3)cc2)C(=O)NO)CC1` [Example 10, N—[(S)-2-hydroxycarbamoyl-2-(4-methane-sulphonylpiperazin-1-yl)ethyl]-4-(4-trifluoromethyl-benzyloxy)benzamide]: the “% TACE inhibition at 10 μM” value on TACE enzyme is reported as 97%. On TACE enzyme (setting [1]), the IC50 is 117 nM.

For the compound `COc1ccc(C(=O)NC[C@@H](C(=O)NO)N2CCN(S(C)(=O)=O)CC2)cc1` [Example 4, N—[(S)-2-hydroxycarbamoyl-2-(4-methane-sulphonylpiperazin-1-yl)ethyl]-4-methoxybenzamide], at TACE enzyme, the “% TACE inhibition at 10 μM” value came out at 100%. Also, at TACE enzyme (setting [1]), half-maximal inhibition (IC50) required 160 nM.

In the case of `Cc1ccc2ccccc2c1COc1ccc(C(=O)NC[C@@H](C(=O)NO)N2CCN(S(C)(=O)=O)CC2)cc1` [Example 19, N—[(S)-2-Hydroxycarbamoyl-2-(4-methane-sulphonylpiperazin-1-yl)ethyl]-4-(2-methylnaphthalen-1-ylmethoxy)benzamide], the “% TACE inhibition at 10 μM” value at TACE enzyme was 90%. Inhibition against TACE enzyme (setting [1]) was half-maximal at 138 nM (IC50).

For the compound `Cc1cc(COc2ccc(C(=O)NC[C@@H](C(=O)NO)N3CCN(S(C)(=O)=O)CC3)cc2)c2ccccc2n1.Cl.Cl` [Example 24, N—[(S)-2-Hydroxycarbamoyl-2-(4-methane-sulphonylpiperazin-1-yl)ethyl]-4-(2-methylquinolin-4-ylmethoxy)benzamide dihydrochloride], on TACE enzyme, the “% TACE inhibition at 10 μM” value came out at 98%.

For `COc1ccc(COc2ccc(C(=O)NC[C@@H](C(=O)NO)N3CCN(S(C)(=O)=O)CC3)cc2)cc1` [Example 17, N—[(S)-2-Hydroxycarbamoyl-2-(4-methane-sulphonylpiperazin-1-yl)ethyl]-4-(4-methoxybenzyloxy)-benzamide], the “% TACE inhibition at 10 μM” value on TACE enzyme was 98%. The compound also returned an IC50 against TACE enzyme (setting [1]) of 70 nM.

As to `O=C(NCC(C(=O)NO)N1CCN(Cc2ccccc2)CC1)c1ccc(OCc2c(C(F)(F)F)nn3ccccc23)cc1` (stereo not drawn) [Example 27, N-[2-(4-Benzylpiperazin-1-yl)-2-hydroxycarbamoylethyl]-4-(2-trifluoromethylpyrazolo[1,5-a]pyridin-3-ylmethoxy)benzamide], on TACE enzyme, the “% TACE inhibition at 10 μM” value was 95%. For the same compound, the half-inhibitory concentration (IC50) against MMP1, on MMP3, at MMP9, against ADAM10 and on ADAM9 was greater than 10000 nM throughout.

On to `CS(=O)(=O)N1CCN([C@@H](CNC(=O)c2ccc(OCc3ccccc3)cc2)C(=O)NO)CC1` [Example 6, 4-benzyloxy-N—[(S)-2-hydroxycarbamoyl-2-(4-methanesulphonylpiperazin-1-yl)ethyl]benzamide], for which the “% TACE inhibition at 10 μM” value at TACE enzyme is recorded as 100%. This compound also displayed an IC50 on TACE enzyme (setting [1]) of 40 nM.

In the case of `CS(=O)(=O)N1CCN([C@@H](CNC(=O)c2ccc(OCc3ccnc4ccccc34)cc2)C(=O)NO)CC1` [Example 21, N—[(S)-2-hydroxycarbamoyl-2-(4-methane-sulphonylpiperazin-1-yl)ethyl]-4-(quinolin-4-ylmethoxy)benzamide], the “% TACE inhibition at 10 μM” value on TACE enzyme was found to be 96%. Further, it took 118 nM to reach half-maximal inhibition against TACE enzyme (setting [1]) (IC50).

Take `Cc1cc(COc2ccc(C(=O)NC[C@@H](C(=O)NO)N3CCN(S(=O)(=O)C(C)C)CC3)cc2)c2ccccc2n1` [Example 23, N-{(S)-2-Hydroxycarbamoyl-2-[4-(propane-2-sulphonyl)piperazin-1-yl]ethyl}-4-(2-methylquinolin-4-ylmethoxy)benzamide]: at TACE enzyme, the “% TACE inhibition at 10 μM” value came out at 97%. This compound registered an IC50 against TACE enzyme (setting [1]) of 102 nM.

On to `CS(=O)(=O)N1CCN([C@@H](CNC(=O)c2ccc(OCC3CC3)cc2)C(=O)NO)CC1` [Example 5, 4-cyclopropylmethoxy-N—[(S)-2-hydroxycarbamoyl-2-(4-methanesulphonylpiperazin-1-yl)ethyl]benzamide], for which the “% TACE inhibition at 10 μM” value on TACE enzyme was 100%. Inhibition at TACE enzyme (setting [1]) was half-maximal at 200 nM (IC50).

As to `Cc1ccc(COc2ccc(C(=O)NC[C@@H](C(=O)NO)N3CCN(S(C)(=O)=O)CC3)cc2)cc1` [Example 11, N—[(S)-2-hydroxycarbamoyl-2-(4-methane-sulphonylpiperazin-1-yl)ethyl]-4-(4-methylbenzyloxy)-benzamide], on TACE enzyme, the “% TACE inhibition at 10 μM” value is 96%. The compound also registered an IC50 against TACE enzyme (setting [1]) of 95 nM.

For the compound `CC#CCOc1ccc(C(=O)NC[C@@H](C(=O)NO)N2CCN(S(=O)(=O)c3ccc(C)cc3)CC2)cc1` [Example 8, 4-but-2-ynyloxy-N-{(S)-2-hydroxycarbamoyl-2-[4-(toluene-4-sulphonyl)piperazin-1-yl]ethyl}benzamide], the “% TACE inhibition at 10 μM” value at TACE enzyme was found to be 100%. The same compound had an IC50 against TACE enzyme (setting [1]) of 54 nM.

Regarding `CS(=O)(=O)N1CCN([C@@H](CNC(=O)c2ccc(OCC#CCO)cc2)C(=O)NO)CC1` [Example 16, 4-(4-Hydroxybut-2-ynyloxy)-N—[(S)-2-hydroxycarbamoyl-2-(4-methanesulphonylpiperazin-1-yl)-ethyl]benzamide], the “% TACE inhibition at 10 μM” value at TACE enzyme amounted to 97%. It took 35 nM to reach half-maximal inhibition at TACE enzyme (setting [1]) (IC50).

Take `CC#CCOc1ccc(C(=O)NCC(C(=O)NO)N2CCN(S(C)(=O)=O)CC2)cc1` (stereo not drawn) [Example 1, 4-But-2-ynyloxy-N-[2-hydroxycarbamoyl-2-(4-methanesulphonylpiperazin-1-yl)ethyl]benzamide]: the “% TACE inhibition at 10 μM” value at TACE enzyme came out at 100%. Besides, the midpoint of inhibition against TACE enzyme (setting [1]), the IC50, lay at 32 nM.

`CC#CCOc1ccc(C(=O)NC[C@@H](C(=O)NO)N2CCN(S(C)(=O)=O)CC2)cc1` [Example 2, 4-But-2-ynyloxy-N—[(S)-2-hydroxycarbamoyl-2-(4-methanesulphonylpiperazin-1-yl)ethyl]benzamide]: the “% TACE inhibition at 10 μM” value on TACE enzyme was determined as 100%. Besides, the IC50 is 28 nM against TACE enzyme (setting [1]); 28 nM against TACE enzyme (selectivity table); greater than 10000 nM on MMP1; 6310 nM on MMP3; greater than 10000 nM on MMP9.

Take `CS(=O)(=O)N1CCN([C@@H](CNC(=O)c2ccc(OCc3ccc(F)cc3)cc2)C(=O)NO)CC1` [Example 9, 4-(4-fluorobenzyloxy)-N—[(S)-2-hydroxycarbamoyl-2-(4-methanesulphonylpiperazin-1-yl)ethyl]benzamide]: the “% TACE inhibition at 10 μM” value at TACE enzyme amounted to 98%. The compound further registered an IC50 at TACE enzyme (setting [1]) of 21 nM.

For `CCN1CCN([C@@H](CNC(=O)c2ccc(OCc3cc(C)nc4ccccc34)cc2)C(=O)NO)CC1` [Example 25, N—[(S)-2-(4-Ethylpiperazin-1-yl)-2-hydroxycarbamoylethyl]-4-(2-methylquinolin-4-ylmethoxy)-benzamide], at TACE enzyme, the “% TACE inhibition at 10 μM” value was 90%. The compound further registered an IC50 on TACE enzyme (setting [1]) of 45 nM.

Regarding `CS(=O)(=O)N1CCN([C@@H](CNC(=O)c2ccc(OCc3ccncc3)cc2)C(=O)NO)CC1` [Example 18, N—[(S)-2-Hydroxycarbamoyl-2-(4-methane-sulphonylpiperazin-1-yl)ethyl]-4-(pyridin-4-ylmethoxy)-benzamide], at TACE enzyme, the “% TACE inhibition at 10 μM” value is 98%. For the same compound, the IC50 against TACE enzyme (setting [1]) is 99 nM.

Take `CC#CCOc1ccc(C(=O)N(C)C[C@@H](C(=O)NO)N2CCN(S(C)(=O)=O)CC2)cc1` [Example 13, 4-But-2-ynyloxy-N—[(S)-2-hydroxycarbamoyl-2-(4-methanesulphonylpiperazin-1-yl)ethyl]-N-methylbenzamide]: on TACE enzyme, the “% TACE inhibition at 10 μM” value amounted to 98%. The same compound came in with an IC50 at TACE enzyme (setting [1]) of 22 nM.
